Like-named read-outs stand apart in the source and are kept apart here.
Molecular target: recombinant human GSK-3β (Homo sapiens, UniProt P49841)
Assay: Determination of Inhibition of GSK-3 Activity (phospho-glycogen synthase peptide-2 phosphorylation, [γ-33P]ATP, scintillation counting)
Format: biochemical
Settings: read-out: GSK-3 inhibitor activity values (IC50 values)
Method: The reaction was initiated by adding 25 μL of phospho-glycogen synthase peptide-2 substrate solution [containing 6 μM phospho-glycogen synthase peptide-2, 20 μM ATP, 16 mM MOPS buffer (pH 7.0), 0.2 mM EDTA, 20 mM magnesium acetate, 0.1 μ Ci[γ-^33P]ATP (relative activity: approximately 110 TBq/mmol)] to 5 μL of each test compound using 5% dimethylsulfoxide as a solvent, and further adding 20 μL of GSK-3β enzyme solution [containing 10 mU recombinant human GSK-3β, 20 mM MOPS buffer (pH 7.0), 1 mM EDTA, 0.1% polyoxyethylene lauryl ether(23 Lauryl Ether; Brij 35), 5% glycerol, and 0.1% β-mercaptoethanol. After 20 minutes at room temperature, the reaction was terminated by the addition of the equivalent amount of 200 mM phosphoric acid solution. 90 μL of the reaction product was spotted onto a multiscreen PH plate (manufactured by Millipore) and washed with 100 mM phosphoric acid solution. The plate was dried, and 30 μL of MicroScint-O (manufactured by Packard BioScience) was added thereto. To evaluate inhibitory activity, cpm was counted using a scintillation counter. Here, Phospho GS Peptide 2 is an amino acid peptide having the following sequence: […]P)-Glu-Asp-Glu-Glu-Glu.

[1] = group stated as 20 nM<IC50<100 nM

recombinant human GSK-3β, sequence (P49841 whole entry): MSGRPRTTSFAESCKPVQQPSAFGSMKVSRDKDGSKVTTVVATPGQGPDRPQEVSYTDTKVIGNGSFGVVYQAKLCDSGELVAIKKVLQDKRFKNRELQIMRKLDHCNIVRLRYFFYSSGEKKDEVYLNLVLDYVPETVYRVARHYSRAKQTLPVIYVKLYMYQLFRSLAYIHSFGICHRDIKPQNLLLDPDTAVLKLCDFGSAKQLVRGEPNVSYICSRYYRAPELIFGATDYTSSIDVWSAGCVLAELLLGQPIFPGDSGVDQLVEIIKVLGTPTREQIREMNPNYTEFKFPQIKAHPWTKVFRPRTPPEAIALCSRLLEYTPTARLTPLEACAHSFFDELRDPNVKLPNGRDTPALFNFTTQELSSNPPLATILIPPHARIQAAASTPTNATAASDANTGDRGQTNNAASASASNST

O=C(NCCn1c(-c2sccc2Cl)c(-c2cccnc2)c2nc[nH]c(=O)c21)Nc1ccccc1 [Compound 793, 1-{2-[6-(3-chloro-thiophen-2-yl)-4-oxo-7-pyridin-3-yl-3-hydropyrrolo[3,2-d]pyrimidin-5-yl]ethyl}-3-phenylurea]
IC50 [1]: 20 to 100 nM

Cc1ccc(CNC(=O)CCCn2c(C3CC3)c(-c3cccnc3)c3nc[nH]c(=O)c32)cc1 [Compound 2331, 4-(6-cyclopropyl-4-oxo-7-(3-pyridyl)(3-hydropyrrolo[3,2-d]pyrimidin-5-yl))-N-[(4-methylphenyl)methyl]butanamide]
IC50 [1]: 20 to 100 nM

CC(=O)NCCn1c(-c2sccc2Cl)c(-c2cccnc2)c2nc[nH]c(=O)c21 [Compound 217, N-{2-[6-(3-chloro(2-thienyl))-4-oxo-7-(3-pyridyl)-3-hydropyrrolo[3,2-d]pyrimidin-5-yl]ethyl}acetamide]
IC50 [1]: 20 to 100 nM

CC(C)(C)CC(=O)NCCn1c(-c2sccc2Cl)c(-c2cccnc2)c2nc[nH]c(=O)c21 [Compound 626, N-{2-[6-(3-chloro-thiophen-2-yl)-4-oxo-7-pyridin-3-yl-3-hydropyrrolo[3,2-d]pyrimidin-5-yl]ethyl}-t-butylacetylamide]
IC50 [1]: 20 to 100 nM

CC(C)(C)CC(=O)NCCn1c(-c2sccc2Cl)c(-c2cn[nH]c2)c2nc[nH]c(=O)c21 [Compound 629, N-{2-[7-(1H-pyrazol-4-yl)-6-(3-chloro-thiophen-2-yl)-4-oxo-3-hydropyrrolo[3,2-d]pyrimidin-5-yl]ethyl}-t-butylacetylamide]
IC50 (group stated as IC50<100 nM): < 100 nM

Cc1ccc(CNC(=O)CCCn2c(C3CC3)c(-c3cnn(C)c3)c3nc[nH]c(=O)c32)cc1 [Compound 2332, 4-[6-cyclopropyl-7-(1-methylpyrazol-4-yl)-4-oxo-(3-hydropyrrolo[3,2-d]pyrimidin-5-yl)]-N-[(4-methylphenyl)methyl]butanamide]
IC50 [1]: 20 to 100 nM

From patent US7557113B2, “Substituted pyrrolo[3,2-d]pyrimidine derivatives” (Teijin Pharma Limited, priority 2003, dated 2009)
